Where two headings read alike, the source gives them in different places.
Legend:
[1] = target: CYP3A4 (Homo sapiens, UniProt P08684); assay: biochemical
[2] = system: C. hominis TU502 isolate; assay: Calibr high-content imaging Cryptosporidium panel; type: cell-based, Cryptosporidium hominis; details: Cryptosporidium hominis
[3] = target: T1, CYP2C9 (Homo sapiens, UniProt P11712); assay: biochemical
[4] = target: T2, CYP2C8 (Homo sapiens, UniProt P10632); assay: CYP reaction phenotyping, recombinant supersomes
T2 sequence (P10632 1-490): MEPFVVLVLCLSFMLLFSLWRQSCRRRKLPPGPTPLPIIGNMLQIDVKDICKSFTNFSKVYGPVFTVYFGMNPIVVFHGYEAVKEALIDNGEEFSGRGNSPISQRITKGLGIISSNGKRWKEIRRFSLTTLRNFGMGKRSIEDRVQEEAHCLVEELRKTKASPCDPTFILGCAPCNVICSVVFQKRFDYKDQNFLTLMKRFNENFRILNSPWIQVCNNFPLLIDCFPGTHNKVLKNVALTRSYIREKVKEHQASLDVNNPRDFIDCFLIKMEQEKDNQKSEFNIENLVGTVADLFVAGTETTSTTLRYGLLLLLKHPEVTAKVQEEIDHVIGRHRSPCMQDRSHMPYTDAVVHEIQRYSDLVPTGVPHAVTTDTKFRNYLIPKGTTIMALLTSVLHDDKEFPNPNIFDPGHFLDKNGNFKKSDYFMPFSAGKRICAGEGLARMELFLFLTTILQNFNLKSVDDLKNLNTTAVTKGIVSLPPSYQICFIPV

[5] = target: T2, CYP2C8; assay: in vitro; details: recombinant CYP2C8 supersomes
[6] = Liver microsome stability; details: monkey, pooled liver microsomes
[7] = target: T3, CYP2B6 (Homo sapiens, UniProt P20813); assay: CYP reaction phenotyping, recombinant supersomes
T3 sequence (P20813 1-491): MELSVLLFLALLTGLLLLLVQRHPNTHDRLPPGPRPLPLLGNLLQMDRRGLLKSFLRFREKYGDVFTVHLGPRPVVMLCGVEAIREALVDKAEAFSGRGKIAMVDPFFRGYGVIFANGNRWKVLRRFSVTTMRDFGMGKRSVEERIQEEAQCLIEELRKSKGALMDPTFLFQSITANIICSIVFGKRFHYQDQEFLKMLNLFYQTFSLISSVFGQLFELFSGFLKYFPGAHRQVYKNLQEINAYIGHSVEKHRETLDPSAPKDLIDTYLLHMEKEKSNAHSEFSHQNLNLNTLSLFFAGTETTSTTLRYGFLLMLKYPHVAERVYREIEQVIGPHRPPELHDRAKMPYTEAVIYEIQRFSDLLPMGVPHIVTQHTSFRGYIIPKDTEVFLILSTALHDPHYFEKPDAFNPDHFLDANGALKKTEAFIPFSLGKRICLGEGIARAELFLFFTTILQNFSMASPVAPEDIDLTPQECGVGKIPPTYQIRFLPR

[8] = target: Cl- channel (GABA-gated); assay: Cerep binding assay
[9] = Plasma protein binding, equilibrium dialysis; details: human
[10] = Plasma levels in IFNγ-KO mouse efficacy model
[11] = Liver microsome stability; details: dog, pooled liver microsomes
[12] = target: T4, AT2 (Homo sapiens, UniProt P50052); assay: Cerep binding assay
T4 construct: Cerep (Eurofins, France)
T4 sequence (P50052 whole entry): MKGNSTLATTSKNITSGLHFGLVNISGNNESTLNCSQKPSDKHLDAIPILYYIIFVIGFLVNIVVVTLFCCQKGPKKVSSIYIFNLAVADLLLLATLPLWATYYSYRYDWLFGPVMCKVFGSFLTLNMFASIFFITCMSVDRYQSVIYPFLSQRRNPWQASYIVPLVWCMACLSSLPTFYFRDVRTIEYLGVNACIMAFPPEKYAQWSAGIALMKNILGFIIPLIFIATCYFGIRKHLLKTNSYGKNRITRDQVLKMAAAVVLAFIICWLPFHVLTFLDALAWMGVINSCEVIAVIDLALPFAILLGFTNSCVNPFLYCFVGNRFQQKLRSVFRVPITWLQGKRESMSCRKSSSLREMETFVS

[13] = target: HsSrC (Homo sapiens, UniProt P12931); assay: SrC enzyme inhibition; type: biochemical
Sequence of HsSrC (P12931 whole entry): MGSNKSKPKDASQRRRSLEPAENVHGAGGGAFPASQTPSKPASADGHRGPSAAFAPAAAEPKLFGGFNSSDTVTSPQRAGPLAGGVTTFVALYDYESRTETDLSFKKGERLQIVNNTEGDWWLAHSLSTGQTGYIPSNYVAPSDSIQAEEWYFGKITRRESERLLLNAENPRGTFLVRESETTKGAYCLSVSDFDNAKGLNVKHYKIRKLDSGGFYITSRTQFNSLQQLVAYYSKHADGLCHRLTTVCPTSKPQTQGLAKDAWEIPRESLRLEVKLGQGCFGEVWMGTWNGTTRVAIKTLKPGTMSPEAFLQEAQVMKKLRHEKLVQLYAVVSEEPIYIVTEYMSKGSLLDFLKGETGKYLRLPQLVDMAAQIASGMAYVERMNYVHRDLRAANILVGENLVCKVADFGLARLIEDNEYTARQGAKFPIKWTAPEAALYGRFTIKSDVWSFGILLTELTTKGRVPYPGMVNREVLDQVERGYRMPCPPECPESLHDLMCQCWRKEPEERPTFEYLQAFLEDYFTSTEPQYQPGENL
Excerpt: […]. […] All other methods are specified in S1 File.

[14] = Hepatocyte stability; details: mouse
[15] = target: T1, CYP2C9; assay: CYP reaction phenotyping, recombinant supersomes
[16] = Cytotoxicity; details: human, CRL-8155 B-lymphocyte cell line
[17] = target: T5, PPARУ (Homo sapiens, UniProt P37231); assay: Cerep cellular and nuclear receptor functional assay; type: cell-based
T5 construct: Cerep (Eurofins, France)
T5 sequence (P37231 1-505): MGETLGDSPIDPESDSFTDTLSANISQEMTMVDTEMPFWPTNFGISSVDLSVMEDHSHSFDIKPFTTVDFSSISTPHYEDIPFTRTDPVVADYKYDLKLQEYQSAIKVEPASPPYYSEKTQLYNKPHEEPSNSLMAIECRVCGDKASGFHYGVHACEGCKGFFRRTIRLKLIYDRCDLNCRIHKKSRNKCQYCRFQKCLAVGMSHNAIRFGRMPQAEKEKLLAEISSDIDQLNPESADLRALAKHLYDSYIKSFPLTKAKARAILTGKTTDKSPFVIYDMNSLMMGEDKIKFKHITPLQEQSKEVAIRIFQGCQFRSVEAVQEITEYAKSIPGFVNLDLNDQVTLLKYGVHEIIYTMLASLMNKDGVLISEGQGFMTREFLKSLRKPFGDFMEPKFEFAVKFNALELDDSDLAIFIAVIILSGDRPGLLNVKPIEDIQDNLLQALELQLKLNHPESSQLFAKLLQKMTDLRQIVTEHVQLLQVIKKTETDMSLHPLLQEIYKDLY

[18] = Mouse PK, IFNγ-KO BL6

T1 sequence (P11712 whole entry): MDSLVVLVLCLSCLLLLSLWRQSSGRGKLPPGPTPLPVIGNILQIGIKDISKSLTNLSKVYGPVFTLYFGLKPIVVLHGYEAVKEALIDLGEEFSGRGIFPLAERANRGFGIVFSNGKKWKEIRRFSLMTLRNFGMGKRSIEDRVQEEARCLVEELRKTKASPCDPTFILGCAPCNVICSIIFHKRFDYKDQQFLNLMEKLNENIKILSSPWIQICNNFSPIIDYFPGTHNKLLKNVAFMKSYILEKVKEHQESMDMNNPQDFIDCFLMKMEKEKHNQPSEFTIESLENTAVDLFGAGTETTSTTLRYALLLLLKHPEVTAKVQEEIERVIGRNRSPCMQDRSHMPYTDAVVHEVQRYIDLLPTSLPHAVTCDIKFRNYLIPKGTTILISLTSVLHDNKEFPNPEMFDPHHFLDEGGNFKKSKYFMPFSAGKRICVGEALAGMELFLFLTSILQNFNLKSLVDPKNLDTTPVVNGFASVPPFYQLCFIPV
Sequence of CYP3A4 (P08684 whole entry): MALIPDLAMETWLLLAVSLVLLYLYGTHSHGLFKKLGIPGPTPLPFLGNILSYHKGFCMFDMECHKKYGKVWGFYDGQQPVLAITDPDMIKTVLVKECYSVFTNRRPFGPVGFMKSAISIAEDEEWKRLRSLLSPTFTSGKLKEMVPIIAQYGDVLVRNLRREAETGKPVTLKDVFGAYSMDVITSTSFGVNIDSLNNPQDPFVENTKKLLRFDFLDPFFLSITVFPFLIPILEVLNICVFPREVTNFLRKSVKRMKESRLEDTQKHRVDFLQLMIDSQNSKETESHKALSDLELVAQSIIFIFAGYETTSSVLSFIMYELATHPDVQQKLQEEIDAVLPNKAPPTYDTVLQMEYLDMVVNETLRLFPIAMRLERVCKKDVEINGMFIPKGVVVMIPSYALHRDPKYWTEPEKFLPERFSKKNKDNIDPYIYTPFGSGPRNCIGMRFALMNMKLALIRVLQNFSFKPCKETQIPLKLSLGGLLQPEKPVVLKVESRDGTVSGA

In the case of `CC1(C)Cn2nc(-c3ccc4cc(OC5CC5)ccc4c3)c(C(N)=O)c2NC1O` (stereo not shown) [M2], the IC50 [1] is reported as > 40000 nM, the EC50 [2] is reported as 440 nM and the EC90 [2] is reported as 1670 nM. For the same compound, the EC50 ([2]; read-out: TU502 C. hominis Count EC50, Replicate 1) was 458 nM, the EC50 ([2]; read-out: TU502 C. hominis Count EC50, Replicate 2) was 428 nM and the EC90 ([2]; read-out: TU502 C. hominis Count EC90, Replicate 1) was 1930 nM. For the same compound, the EC90 ([2]; read-out: TU502 C. hominis Count EC90, Replicate 2) was 1410 nM, the IC50 [3] was > 40000 nM and the “% contribution” value [4] was 0.0%. The CLint [4] was <0.029 µL/min/pmol, the CLint scaled [5] was < 1.78 mL/min/kg and the half-life [5] was > 4 h. For the same compound, the CLint scaled [6] was 55 mL/min/kg, the half-life [6] was 0.95 h and the microsomal CLint [6] was 48.6 µL/min/mg. For the same compound, the “% contribution” value [7] was 5.1%, the CLint [7] was 0.044 µL/min/pmol and the IC50 [8] was 17000 nM. The “% inhibition of control specific binding” value ([8]; 10 μM, antagonist radioligand, mean) was 50.6%, the fraction unbound [9] was 0.04 and the peak plasma exposure ([10]; M2 8 mg/kg x 3 days) was 3.0 ± 1.0 µM. The peak plasma level ([10]; M2 15 mg/kg x 3 days) was 6.8 ± 1.2 µM, the peak plasma level ([10]; M2 30 mg/kg x 3 days) was 7.7 ± 3.6 µM and the CLint scaled [11] was < 33.3 mL/min/kg. The half-life [11] was > 2 h, the microsomal CLint [11] was < 23.1 µL/min/mg and the IC50 [12] was 4600 nM. For the same compound, the inhibition at 10 µM ([12]; 10 μM, agonist radioligand, mean, read-out: % inhibition of control specific binding) was 50.7%, the IC50 [13] was > 10000 nM and the “LM:hepatocyte CLint_scaled ratio” value ([14]; liver microsomes and primary hepatocytes) was 1.7. The CLint scaled ([14]; primary hepatocytes) was 45 mL/min/kg, the half-life ([14]; primary hepatocytes) was 4.37 h and the hepatocyte CLint ([14]; primary hepatocytes) was 5.3 µL/min/1e6 cells. For the same compound, the “% contribution” value [15] was 0.0%, the CLint [15] was <0.029 µL/min/pmol and the CC50 [16] was 15600 nM. The agonist effect [17] was “no effect up to 100 μM”, the IC50 ([17]; read-out: IC50, antagonist effect) was > 100000 nM and the “M2 AUC0-inf” value ([18]; after BKI-1708 IV 3 mg/kg) was 792 ± 18 µmol·min/L. For the same compound, the “M2 AUC0-inf” value ([18]; after BKI-1708 PO 15 mg/kg) was 5948 ± 1398 µmol·min/L.
